Results on two compounds are retold here after patent US9700552B2, “Pharmaceutical compositions for treatment of addiction” (priority 2008, dated 2017).

Like-named read-outs stand apart in the source and are kept apart here.

For data set [1] the following is noted: in vivo; cited from earlier work.
A short description of data set [2]: Solubility of naltrexone in adhesive matrix. The class given is physicochemical. The text has this:
[…]. Adhesive matrices having such Hildebrand solubility parameters are typically, although not necessarily polyacrylate copolymers. […].

The conditions of data set [3]: in vivo, cited from earlier work.

Take `Oc1ccc2c3c1O[C@H]1[C@H](O)CC[C@@]4(O)[C@@H](C2)N(CC2CC2)CC[C@]314` [6-β-naltrexol]: the mean elimination half-life entry in data set [1] was “thirteen”.
Consider `O=C1CC[C@@]2(O)[C@H]3Cc4ccc(O)c5c4[C@@]2(CCN3CC2CC2)[C@H]1O5` [naltrexone], for which the entries for the “solubility of naltrexone in adhesive” value in data set [2] (in DURO-TAK® 87-900A) and in data set [2] (in DURO-TAK® 87-2510) were 5.851 g/100 g of polymer and 3.067 g/100 g of polymer, respectively. The safety statement entry in data set [3] is “major liver toxin”; in data set [3] (listed as Naltrexone), “very few and minor side effects”.
